Values quoted from earlier work as cited in US6696084B2 (RTP Pharma Inc., priority 2000, dated 2004).

Legend:
[1] = oral administration with or without food

solubility in acetone	solubility in ethanol	solubility in methanol	solubility in water	solubility in acetonitrile	solubility in chloroform (chloroform)	solubility in ether (ether)	solubility in isopropanol (isopropanol)	Structure (SMILES)	food effect on absorption / uptake [1]
very slightly soluble	soluble	soluble	soluble	–	–	–	–	COCc1c(C(C)C)nc(C(C)C)c(/C=C/[C@@H](O)C[C@@H](O)CC(=O)O)c1-c1ccc(F)cc1 [Cerivastatin]	not sensitive to a food effect
–	soluble	soluble	soluble	–	–	–	–	CC(C)n1c(/C=C/C(O)CC(O)CC(=O)O)c(-c2ccc(F)cc2)c2ccccc21 (stereo not drawn) [Fluvastatin]	reduces the rate but not the extent of absorption
practically insoluble	–	–	–	practically insoluble	practically insoluble	practically insoluble	slightly soluble	CC[C@H](C)C(=O)O[C@H]1C[C@H](O)C=C2C=C[C@H](C)[C@H](CC[C@@H](O)C[C@@H](O)CC(=O)O)[C@H]21 [Pravastatin]	–
–	sparingly soluble	sparingly soluble	insoluble	sparingly soluble	–	–	–	CC[C@H](C)C(=O)O[C@H]1C[C@@H](C)C=C2C=C[C@H](C)[C@H](CC[C@@H]3C[C@@H](O)CC(=O)O3)[C@H]21 [Lovastatin]	–
